Laboratory results: publication PMC7048932, “Examining sterically demanding lysine analogs for histone lysine methyltransferase catalysis” (Scientific Reports, 2020)

Target: T1, GLP (Homo sapiens, UniProt Q9H9B1)
T1 construct: His6 (N); made in house; host or cells: E. coli BL21 (DE3)pLysS-rosetta
T1 sequence (Q9H9B1 1-1298): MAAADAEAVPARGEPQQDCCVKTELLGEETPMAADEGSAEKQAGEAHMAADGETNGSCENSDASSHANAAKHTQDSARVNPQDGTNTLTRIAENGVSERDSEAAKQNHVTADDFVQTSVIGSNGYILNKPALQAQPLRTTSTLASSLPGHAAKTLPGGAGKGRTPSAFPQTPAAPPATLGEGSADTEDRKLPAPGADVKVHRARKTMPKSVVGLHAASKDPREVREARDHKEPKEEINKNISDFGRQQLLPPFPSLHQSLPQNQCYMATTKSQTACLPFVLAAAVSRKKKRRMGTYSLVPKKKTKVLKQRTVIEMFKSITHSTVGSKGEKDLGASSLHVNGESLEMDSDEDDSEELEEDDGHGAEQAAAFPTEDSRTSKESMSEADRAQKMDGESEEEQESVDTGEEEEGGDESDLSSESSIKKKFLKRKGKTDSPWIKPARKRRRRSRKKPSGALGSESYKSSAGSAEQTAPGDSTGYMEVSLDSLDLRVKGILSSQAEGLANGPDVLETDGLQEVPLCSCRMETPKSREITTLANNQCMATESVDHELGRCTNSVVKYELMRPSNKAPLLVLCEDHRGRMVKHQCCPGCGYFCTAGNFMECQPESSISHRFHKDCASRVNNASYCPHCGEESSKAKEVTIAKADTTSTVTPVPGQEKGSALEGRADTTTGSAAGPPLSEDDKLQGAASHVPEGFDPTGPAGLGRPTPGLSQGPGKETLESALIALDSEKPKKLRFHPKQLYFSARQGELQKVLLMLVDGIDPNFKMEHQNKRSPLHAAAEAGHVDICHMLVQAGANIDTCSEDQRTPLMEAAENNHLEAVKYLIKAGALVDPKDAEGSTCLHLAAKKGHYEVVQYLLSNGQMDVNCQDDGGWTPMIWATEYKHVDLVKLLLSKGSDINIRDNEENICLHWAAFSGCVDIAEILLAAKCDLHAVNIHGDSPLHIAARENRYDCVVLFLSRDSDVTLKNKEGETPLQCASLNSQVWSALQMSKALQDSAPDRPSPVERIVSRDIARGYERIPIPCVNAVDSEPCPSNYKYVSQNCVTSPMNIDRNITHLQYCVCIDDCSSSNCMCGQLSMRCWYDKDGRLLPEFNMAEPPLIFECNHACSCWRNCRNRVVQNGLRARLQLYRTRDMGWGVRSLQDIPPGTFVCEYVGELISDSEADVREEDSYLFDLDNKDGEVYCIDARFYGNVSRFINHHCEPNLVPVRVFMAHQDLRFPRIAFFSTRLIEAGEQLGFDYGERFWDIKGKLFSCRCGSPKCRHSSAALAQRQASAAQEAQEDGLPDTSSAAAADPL
Assay: NMR assay of GLP-catalyzed methylation of H3K9 peptides
Type: biochemical
Conditions: peptide 400 µM, GLP 8 µM, SAM 2 mM, 50 mM Tris-d11.HCl pD 8.0, 1 h, 37 °C

**Q.** How did the “GLP-catalyzed methylation by 1H NMR / 1H-13C HSQC, result in words” value turn out when ARTKQTAR(Kba9)STGGKA [H3Kba9] was run?
**A.** The value was “not methylated”.
